Source: US10538797B2, “Method for the biotechnological production of flavone glycoside dihydrochalcones” (priority 2014, dated 2020)

Test system: E. coli BL21 transformed with pET28_CHI_ΔLid and pET22_ERED
Assay: Whole-cell biocatalysis of naringin
Format: cell-based
Details: 150 μM naringin, cell suspension OD=150 in 20 mM TRIS-HCl pH 7.5, gassed with nitrogen, 23° C., 900 rpm, 22 h
Experimental: After successful cloning the plasmid pET28_CHI_ΔLid (FIG. 1) together with the plasmid pET22_ERED was transformed into E. coli BL21.
200 mL LBkan, amp were inoculated with 1% (v/v) of an overnight culture and grown at 37° C. to an OD≥1. The induction of the expression was then carried out with 0.1 mM IPTG. The expression of the protein was carried out for 21 h at 20° C.
After the harvesting of the cells these were normalised with 20 mM TRIS-HCl pH 7.5 to an OD=150. For the implementation of the biocatalyses in each case 490 μL of the cell suspension was added with 10 μL naringin solution (stock solution: 7.5 mM naringin dissolved in 1,2-propylene glycol; final concentration: 150 μM) to a 2 mL Eppendorf reaction vessel and gassed with nitrogen. The biocatalyses were carried out at 23° C., 900 rpm and 22 h. The extraction of the substrates was carried out twice with ethyl acetate.

**Q.** `C[C@@H]1O[C@@H](O[C@H]2[C@H](Oc3cc(O)c4c(c3)O[C@H](c3ccc(O)cc3)CC4=O)O[C@H](CO)[C@@H](O)[C@@H]2O)[C@H](O)[C@H](O)[C@H]1O` [naringin] was tested. Which “conversion of the naringin” value did it give?
**A.** 65%
